What is called inhibition is how much of the control response was suppressed.

Structures are written as SMILES. Where two headings read alike, the source gives them in different places.

Test [1] has as its target FLNA pentapeptide of SEQ ID NO: 1 (Bn-VAKGL) (Homo sapiens, UniProt P21333). Kind of test: FITC-NLX-based FLNA screening assay (inhibition of FITC-naloxone binding to Bn-VAKGL on streptavidin plates). Particulars: 10 nM FITC-NLX.
Another test concerns mu opiate receptor (MOR). The experiment in a line: MOR agonist activity using [35S]GTPγS binding assay in striatal membranes. Format: biochemical. The gist of the method: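 Striatal membranes (200 μg) were preincubated 5 min at 30 °C in HEPES pH 7.5 with 100 mM NaCl, 1 mM MgCl2 and 0.5 nM [35S]GTPγS, then 5 min more with 0.1–10 μM compound. Gαo was immunoprecipitated and bound radioactivity counted by scintillation.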
For orientation: GTPγS resists hydrolysis and so accumulates on activated G proteins.

The mark [2] stands for this setting: read-out: Percent Binding Inhibition, FLNA-binding compound 0.01 μM.
[3] abbreviates: read-out: Percent Binding Inhibition, FLNA-binding compound 0.1 μM.
Where [4] appears, read: read-out: Percent Binding Inhibition, FLNA-binding compound 1 μM.
The mark [5] stands for this setting: FLNA-binding compound 0.01 μM, read-out: Percent Binding Inhibition.
[6] abbreviates: FLNA-binding compound 0.1 μM, read-out: Percent Binding Inhibition.
Setting [7] is: FLNA-binding compound 1 μM, read-out: Percent Binding Inhibition.
Where [8] appears, read: Series C-2, 0.1 μM compound, relative to DAMGO.
[9] abbreviates: Series C-2, 0.1 μM compound, [35S]GTPγS binding to Gαo, striatal membranes.
Where [10] appears, read: Series C-2, 1 μM compound + 1 μM β-FNA.
Where [11] appears, read: Series C-2, 1 μM compound + β-FNA, relative to DAMGO + BFNA.
Setting [12] is: Series C-2, 1 μM compound, relative to DAMGO.
[13] abbreviates: Series C-2, 1 μM compound, [35S]GTPγS binding to Gαo, striatal membranes.

Take `OC(COc1ccc(Br)c(F)c1)CN1CCSCC1` (stereo not drawn) [Compound A0059]: the inhibition at 0.01 µM in test [1] (setting [2]) came out at 27.4%. The inhibition at 0.1 µM in test [1] (setting [3]) is 36.6%. The inhibition at 1 µM in test [1] (setting [4]) came out at 38.7%. The “MOR agonist activity ([35S]GTPγS binding), FLNA-Binding Compound as Agonist 0.1 μM” value in the test with mu opiate receptor (MOR) (0.1 μM compound) worked out at 99.2%. The “% DAMGO (0.1 μM)” value with mu opiate receptor (MOR) (0.1 μM compound relative to DAMGO) is 63.5%. The “MOR agonist activity ([35S]GTPγS binding), FLNA-Binding Compound as Agonist 1 μM” value with mu opiate receptor (MOR) (1 μM compound) came to 129.9%. In addition, the “MOR agonist activity ([35S]GTPγS binding), FLNA-Binding Compound as Agonist 1 μM + BFNA” value in the test on mu opiate receptor (MOR) (1 μM compound + 1 μM β-funaltrexamine) was 85.7%. Further, in the test on mu opiate receptor (MOR) (1 μM compound + BFNA relative to DAMGO + BFNA), the “% DAMGO + BFNA” value stood at 214.8%. For the same molecule, the “% DAMGO (1 μM)” value with mu opiate receptor (MOR) (1 μM compound relative to DAMGO) is on record as 56.4%.
For the molecule `O=S(=O)(c1ccc(C(F)(F)F)cc1)N1CCC2(CC1)OCCN2S(=O)(=O)c1ccc(C(F)(F)F)cc1` [Compound C0012], the inhibition at 0.01 µM in test [1] (setting [2]) worked out at 26.3%. In test [1] (setting [3]), the inhibition at 0.1 µM worked out at 39.5%. Besides, the inhibition at 1 µM in test [1] (setting [4]) is 46.4%. Further, the “% DAMGO (0.1 μM)” value in the test with mu opiate receptor (MOR) (Series C-1, 0.1 μM compound, relative to DAMGO) is given as 54.8%. Besides, in the test on mu opiate receptor (MOR) (Series C-1, 0.1 μM compound, [35S]GTPγS binding to Gαo, striatal membranes), the “Concentration of FLNA-Binding Compound as Agonist 0.1 μM” value amounted to 96.8%. In addition, in the test with mu opiate receptor (MOR) (Series C-1, 1 μM compound + 1 μM β-FNA), the “Concentration of FLNA-Binding Compound as Agonist 1 μM + BFNA” value amounted to 184.4%. Besides, the “% DAMGO + BFNA” value in the test with mu opiate receptor (MOR) (Series C-1, 1 μM compound + β-FNA, relative to DAMGO + BFNA) worked out at 280.7%. In addition, in the test on mu opiate receptor (MOR) (Series C-1, 1 μM compound, relative to DAMGO), the “% DAMGO (1 μM)” value is given as 86.7%. Besides, in the test with mu opiate receptor (MOR) (Series C-1, 1 μM compound, [35S]GTPγS binding to Gαo, striatal membranes), the “Concentration of FLNA-Binding Compound as Agonist 1 μM” value stood at 224.8%.
As to `COc1c2c(cc3c1C(CC(=O)CCc1ccc(O)cc1)[N+](C)(C)CC3)OCO2` (stereo not drawn) [Compound B0028], the inhibition at 0.01 µM in test [1] (setting [2]) turned out to be 38.2%. Further, the inhibition at 0.1 µM in test [1] (setting [3]) came to 42.8%. In addition, the inhibition at 1 µM in test [1] (setting [4]) was 49.1%. In addition, the “% DAMGO (0.1 μM)” value with mu opiate receptor (MOR) (Series B, 0.1 μM compound, relative to DAMGO) was 103.5%. In addition, the “MOR agonist activity, percent [35S]GTPγS binding at the stated compound concentration” value (“MOR agonist activity, percent” for short) in the test on mu opiate receptor (MOR) (Series B, 0.1 μM compound, [35S]GTPγS binding to Gαo, striatal membranes) is listed as 199.1%; in the test on mu opiate receptor (MOR) (Series B, 1 μM compound + 1 μM β-FNA), 55.0%; in the test on mu opiate receptor (MOR) (Series B, 1 μM compound, [35S]GTPγS binding to Gαo, striatal membranes), 357.7%. Further, in the test with mu opiate receptor (MOR) (Series B, 1 μM compound + β-FNA, relative to DAMGO + BFNA), the “% DAMGO + BFNA” value was found to be 125.3%. In addition, the “% DAMGO (1 μM)” value with mu opiate receptor (MOR) (Series B, 1 μM compound, relative to DAMGO) stood at 131.0%.
For the molecule `CS(=O)(=O)c1ccc(S(=O)(=O)N2CCOC23CCN(CC2CC2)CC3)cc1` [Compound C0126M], in test [1] (setting [5]), the inhibition at 0.01 µM is 50.7%. In addition, the inhibition at 0.1 µM in test [1] (setting [6]) came out at 55.4%. For the same molecule, the inhibition at 1 µM in test [1] (setting [7]) amounted to 67.3%. Also, the “% DAMGO (0.1 μM)” value in the test on mu opiate receptor (MOR) (setting [8]) is reported as 108.5%. For the same molecule, the “MOR agonist activity, percent” value with mu opiate receptor (MOR) (setting [9]) is given as 181.8%; in the test on mu opiate receptor (MOR) (setting [10]) it was 108.5%; in the test with mu opiate receptor (MOR) (setting [13]), 265.3%. Besides, the “% DAMGO + BFNA” value in the test with mu opiate receptor (MOR) (setting [11]) is 228.4%. The “% DAMGO (1 μM)” value with mu opiate receptor (MOR) (setting [12]) came to 119.3%.
Consider `CC(=O)c1ccc(S(=O)(=O)N2CCOC23CCN(C)CC3)cc1` [Compound C0093M], for which, in test [1] (setting [2]), the inhibition at 0.01 µM worked out at 44.8%. Further, the inhibition at 0.1 µM in test [1] (setting [3]) is 49.9%. Further, in test [1] (setting [4]), the inhibition at 1 µM was found to be 53.5%. For the same molecule, the “% DAMGO (0.1 μM)” value with mu opiate receptor (MOR) (setting [8]) amounted to 81.3%. Moreover, the “MOR agonist activity, percent” value is 140.0% with mu opiate receptor (MOR) (setting [9]), 44.0% in the test with mu opiate receptor (MOR) (setting [10]) and 211.8% with mu opiate receptor (MOR) (setting [13]). Further, the “% DAMGO + BFNA” value in the test on mu opiate receptor (MOR) (setting [11]) is 127.5%. Further, in the test with mu opiate receptor (MOR) (setting [12]), the “% DAMGO (1 μM)” value came to 96.4%.
On to `CC(=O)N1CCSC12CCN(S(=O)(=O)c1ccc([N+](=O)[O-])cc1)CC2` [Compound C0050], for which, in test [1] (setting [5]), the inhibition at 0.01 µM worked out at 26.7%. In addition, the inhibition at 0.1 µM in test [1] (setting [6]) stood at 34.5%. Moreover, in test [1] (setting [7]), the inhibition at 1 µM came to 36.4%. Further, the “% DAMGO (0.1 μM)” value with mu opiate receptor (MOR) (setting [8]) came to 76.1%. Further, the “MOR agonist activity, percent” value is 110.3% in the test on mu opiate receptor (MOR) (setting [9]), 59.0% in the test with mu opiate receptor (MOR) (setting [10]) and 127.6% with mu opiate receptor (MOR) (setting [13]). For the same molecule, the “% DAMGO + BFNA” value in the test with mu opiate receptor (MOR) (setting [11]) was determined as 134.1%. The “% DAMGO (1 μM)” value in the test with mu opiate receptor (MOR) (setting [12]) is recorded as 54.8%.

Source of the values: patent publication US10363239B2, “Method for inhibiting growth of cancer cells” (Pain Therapeutics, Inc., priority 2013, dated 2019).
